{
  "source": "PubChem BioAssay AID1963985",
  "about": "(Molecular Pharmacology Branch, DTP, NCI, 2024);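 further: spheroids exposed to agents for seven days before readout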;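 on viability, T/C: percent of vehicle DMSO control viability so 100% = untreated growth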",
  "tested_on": "252836-082-R-J2-PDC tumor spheroids, viability",
  "experiment": "Anticancer human tumor 252836-082-R-J2-PDC patient-derived head and neck squamous cell carcinoma cell line growth inhibition [PI3K]",
  "conditions": "spheroids with HUVEC and MSC; for viability, T/C: stronger effect = lower value",
  "procedure,_shortened": "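Spheroid viability read-out. Co-cultures contained the tumor line plus HUVEC and human MSCs. Each agent was paired with a PI3K inhibitor (inavolisib, alpelisib, duvelisib, copanlisib) across half-log dilutions starting at clinical Cmax, or at 10 microM when Cmax was unknown.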",
  "data": [
    {"smiles": "CCN1CCN(Cc2ccc(Nc3ncc(F)c(-c4cc(F)c5nc(C)n(C(C)C)c5c4)n3)nc2)CC1", "values": [
      {"measurement": "viability, T/C", "setting": "compound 0.00316 µM", "result": "99.2% [middle of 4 runs]"},
      {"measurement": "viability, T/C", "setting": "compound 0.01 µM", "result": "91.3% [middle of 4 runs]"},
      {"measurement": "viability, T/C", "setting": "compound 0.0316 µM", "result": "94.5% [middle of 4 runs]"},
      {"measurement": "viability, T/C", "setting": "compound 0.1 µM", "result": "95.2% [middle of 4 runs]"},
      {"measurement": "viability, T/C", "setting": "compound 0.316 µM", "result": "91.5% [middle of 4 runs]"},
      {"measurement": "IC50", "setting": "curve of compound", "result": "> 1000", "unit": "nM"}
    ]}
  ]
}
